Entries after “also recorded” stand apart in the source; their conditions may differ.
What was measured:
[1] = test system: mouse DRG neurons; assay: Current-clamp recording of action potentials elicited by mechanical stimuli in mouse DRG neurons; format: cell-based
From the text: Subsequent sweeps had increments of 1 μm.

[2] = test system: mice; assay: Hargreaves radiant heat test after daily hind paw injection; format: in vivo, mouse; details: MA 5 mM injected daily into hind paw for 7 days
Experimental: (§1) Mice behavior: MA solution: MA was prepared in sterile Dulbecco's phosphate buffered saline, with 70 g/L fatty acid free bovine serum albumin (BSA; Sigma), and MA to a final concentration of 5 mM. The solution was filtered to avoid undissolved materials.
(§2) Subjects: For the experiment 8-12 weeks old male and female C57B16/J mice (N=12; control n=6; male=3, female=3) MA (n=6; male=3, female=3) per experiment were used. Mice were housed under a 12 hr light dark cycle and granted access to food and water ad libitum.
Treatment: Animals were put in two groups (control and MA) and given injections in the plantar of the left hind paw for 7 days prior behavioral assessment. Injections were given as follows: Mouse is restrained by their tail, foot, and over shoulders scruff. The compound is delivered using a 3/10 cc insulin syringe into the plantar surface of the back foot of each mouse. The beveled needle is inserted at a 35-40° angle and 20-50 μl of the compound is injected subcutaneously. The needle is held in place for several seconds before being removed and the animal is returned to its home cage. […]
Thermal threshold (Hargreaves test): Animals were placed in small enclosures over a glass plate heated to 32° C. […] The latency for each rodent to withdraw the paw is recorded with three stimulus presentations administered per paw. […]

[3] = test system: mice; assay: Von Frey test after acute inflammation by topical AITC; format: in vivo, mouse; details: MA treatment for 7 days, then AITC
Experimental: as §1, §2
Treatment: Animals were put in two groups (control and MA) and given injections in the plantar of the left hind paw for 7 days prior behavioral assessment. Injections were given as follows: Mouse is restrained by their tail, foot, and over shoulders scruff. […]
Mechanical threshold (Von Frey test): Punctate mechanical allodynia was measured using Von Frey monofilaments (Stoelting, Inc.) in varying grams of force (0.008-1 g). Animals were placed in small enclosures over a wire mesh and the plantar of the hind paw was poked with a filament and responses were recorded. Withdrawal responses were recorded when the animal lifted, shook, or licked the paw in response to stimulus presentation. […]

[4] = biological target: T1, endogenous PIEZO2 (Homo sapiens, UniProt Q9H5I5); assay: Whole-cell patch-clamp of mechanically activated currents in human iPSC-derived neurons; format: cell-based
T1 construct: endogenous in cells; host or cells: sensory neurons differentiated from human WTC11 iPSC line
From the text: Human iPSC-derived neurons: For generating human peripheral sensory neuron cultures, a version of the healthy control WTC11 iPSC line was used. This line was previously engineered to harbor a doxycycline-inducible NGN2-BRN3A construct that enables rapid and efficient sensory neuron differentiation. Undifferentiated iPSCs were maintained in E8 flex medium (invitrogen) on polystyrene plates coated with Matrigel® (Corning). The medium was exchanged every 1-3 days, and the cells were passaged every 4-7 days with Accutase® (Invitrogen) and plated overnight with 10 μM of the ROCK-inhibitor Y-27632 (Tocris). For sensory neuron differentiation, iPSCs were seeded at 20,000 cells·(cm2)−1 in neural differentiation medium (NDM) on Matrigel®-coated plates. The cells were then re-plated after 48 hours at 50,000 cells·(cm^2)^−1 onto dishes coated with polyethylenimine (Sigma-Aldrich) and laminin (Invitrogen). NDM consisted of (all from Invitrogen) 1:1 DMEM/F12 and Neurobasal™ medium supplemented with N2, B27, and GlutaMAX™ at manufacturer-recommended dilution. 2 μg·ml^−1 doxycycline (Clontech) was included in the medium for the duration of the culture, 10 μM.

[5] = test system: Piezo2 V14; assay: Whole-cell patch-clamp of N2A^Piezo1−/− cells transfected with Piezo2 V14; details: 300 μM; 18 h
Experimental: (§3) Cell culture and electrophysiology: Piezo1 knock-out mouse N2A (N2A^Piezo1−/−) cells were a gift from Dr. Gary R. Lewin, human Merkel cell carcinoma cell line (MCC13 cells; Cell Bank Australia reference number: CBA1338) were obtained from Sigma, and DRG neurons were obtained from sacrificed mice. N2A^Piezo1−/− cells were cultured in Dulbecco's Modified Eagle Medium (DMEM), 5% penicillin streptomycin and 10% fetal bovine serum (FBS); MCC13 cells were cultured in RPMI 1640 (with 2 mM L-glutamine+25 mM HEPES; Sigma), 5% penicillin-streptomycin and 10% FBS and; DRG neurons were cultured in DMEM, 1% penicillin-streptomycin, 1% MEM vitamin solution, 1% L-glutamine, and 10% horse serum. Prior to electrophysiological measurements, N2A^Piezo1−/−, MCC13 and DRG neurons were supplemented overnight (≈18 h) with MA. […] MA was obtained from Nu-Chek Prep, INC. The cultured cells were maintained at 37° C., 95% relative humidity, and 5% CO2.
(§4) For whole-cell recordings, the bath solution contained 140 mM NaCl, 6 mM KCl, 2 mM CaCl2), 1 mM MgCl2, 10 mM glucose, and 10 mM HEPES (pH 7.4; 300 mOsm). […]
(§5) During mechanical stimulation, currents were recorded at a constant voltage (−60 mV, voltage-clamp), and voltages were recorded without injecting current (current-clamp). […]

[6] = test system: Piezo2 V16; assay: Whole-cell patch-clamp of N2A^Piezo1−/− cells transfected with Piezo2 V16; details: 300 μM; 18 h
Experimental: as §3, §4, §5

[7] = biological target: human PIEZO2 (Homo sapiens, UniProt Q9H5I5); assay: Whole-cell patch-clamp of N2A^Piezo1−/− cells transfected with human Piezo2; details: 300 μM; 18 h
Experimental: as §3, §4, §5

[8] = test system: mechano-activated currents of mouse DRG neurons; assay: Whole-cell patch-clamp of mechano-activated currents in cultured mouse DRG neurons; details: 300 μM
Experimental: as §3
For whole-cell recordings, the bath solution contained 140 mM NaCl, 6 mM KCl, 2 mM CaCl2), 1 mM MgCl2, 10 mM glucose, and 10 mM HEPES (pH 7.4; 300 mOsm). The pipette solution for voltage-clamp recordings contained: 140 mM CsCl, 5 mM EGTA, 1 mM CaCl2), 1 mM MgCl2, and 10 mM HEPES (pH 7.2); and for current clamp recordings: 140 mM KCl, 6 mM NaCl, 2 mM CaCl2), 1 mM MgCl2, 10 mM glucose, and 10 mM HEPES (pH 7.4; 300 mOsm); MA and bradykinin acetate salt (Sigma) perfused during experiments were dissolved in the bath solution to a final concentration of 300 μM for 2 min, and 1 μM for 5 min respectively; and for long exposure experiments bradykinin was supplemented to the culture medium and added to the cells 18-24 h prior recording. […] Pipettes were made out of borosilicate glass (Sutter Instruments) and were fire-polished before use until a resistance between 3 and 5 MΩ was reached.
During mechanical stimulation, currents were recorded at a constant voltage (−60 mV, voltage-clamp), and voltages were recorded without injecting current (current-clamp). Both variables were sampled at 100 kHz and low-pass filtered at 10 kHz using a MultiClamp™ 700 B amplifier and Clampex (Molecular Devices, LLC). […] In both cases, variables were sampled at 20 kHz and low-pass filtered at 10 kHz. Leak currents before mechanical stimulations were subtracted off-line from the current traces and data were digitally filtered at 2 kHz with ClampFit (Molecular Devices, LLC).
The blunt pipette was mounted on a micromanipulator at an ~45° angle and positioned 3-4 μm above from the cells without indenting them. Displacement measurements were obtained with a square-pulse protocol consisting of 1 μm incremental indentation steps, each lasting 200 ms with a 2-ms ramp in 10-s intervals. […]

[9] = biological target: PIEZO1 (Mus musculus, UniProt E2JF22); assay: Whole-cell patch-clamp with mechanical indentation of N2A cells expressing endogenous Piezo1; details: IC50 of inhibition of PIEZO1 currents, mean±SEM
Experimental: as §3, §4, §5
Data analysis: Results were expressed as means±SD (unless otherwise noted). […]

[10] = test system: rat DRG neurons; assay: Current-clamp recording of action potentials elicited by mechanical stimuli in rat DRG neurons; details: 300 μM
Experimental: N2A^Piezo1−/− cells were cultured in Dulbecco's Modified Eagle Medium (DMEM), 5% penicillin streptomycin and 10% fetal bovine serum (FBS); MCC13 cells were cultured in RPMI 1640 (with 2 mM L-glutamine+25 mM HEPES; Sigma), 5% penicillin-streptomycin and 10% FBS and; DRG neurons were cultured in DMEM, 1% penicillin-streptomycin, 1% MEM vitamin solution, 1% L-glutamine, and 10% horse serum. […] The cultured cells were maintained at 37° C., 95% relative humidity, and 5% CO2.
For whole-cell recordings, the bath solution contained 140 mM NaCl, 6 mM KCl, 2 mM CaCl2), 1 mM MgCl2, 10 mM glucose, and 10 mM HEPES (pH 7.4; 300 mOsm). […] Pipettes were made out of borosilicate glass (Sutter Instruments) and were fire-polished before use until a resistance between 3 and 5 MΩ was reached.
During mechanical stimulation, currents were recorded at a constant voltage (−60 mV, voltage-clamp), and voltages were recorded without injecting current (current-clamp). Both variables were sampled at 100 kHz and low-pass filtered at 10 kHz using a MultiClamp™ 700 B amplifier and Clampex (Molecular Devices, LLC). To measure voltage-dependent currents, a square-pulse protocol consisting of 40-ms 20-mV incremental steps starting from −80 mV in 500-ms intervals with P/4 subtraction was used; and to record action potentials evoked by current injection, 40-ms 20-pA incremental steps were injected in 500-ms intervals. […]

[11] = biological target: mouse PIEZO2 (Mus musculus, UniProt Q8CD54); assay: Whole-cell patch-clamp with mechanical indentation of N2A^Piezo1−/− cells transfected with Piezo2 variant 2 (V2); details: for IC50: IC50 of inhibition of PIEZO2 currents, mean±SEM
Experimental: as §3
(§6) For whole-cell recordings, the bath solution contained 140 mM NaCl, 6 mM KCl, 2 mM CaCl2), 1 mM MgCl2, 10 mM glucose, and 10 mM HEPES (pH 7.4; 300 mOsm). The pipette solution for voltage-clamp recordings contained: 140 mM CsCl, 5 mM EGTA, 1 mM CaCl2), 1 mM MgCl2, and 10 mM HEPES (pH 7.2); and for current clamp recordings: 140 mM KCl, 6 mM NaCl, 2 mM CaCl2), 1 mM MgCl2, 10 mM glucose, and 10 mM HEPES (pH 7.4; 300 mOsm); MA and bradykinin acetate salt (Sigma) perfused during experiments were dissolved in the bath solution to a final concentration of 300 μM for 2 min, and 1 μM for 5 min respectively; and for long exposure experiments bradykinin was supplemented to the culture medium and added to the cells 18-24 h prior recording. For cytoskeleton disruption experiments, N2A^Piezo1−/− were incubated in media supplemented with 1 μM latrunculin A (Cayman Chemicals) for 1 h prior recordings. Pipettes were made out of borosilicate glass (Sutter Instruments) and were fire-polished before use until a resistance between 3 and 5 MΩ was reached.
(§7) During mechanical stimulation, currents were recorded at a constant voltage (−60 mV, voltage-clamp), and voltages were recorded without injecting current (current-clamp). Both variables were sampled at 100 kHz and low-pass filtered at 10 kHz using a MultiClamp™ 700 B amplifier and Clampex (Molecular Devices, LLC). […] Leak currents before mechanical stimulations were subtracted off-line from the current traces and data were digitally filtered at 2 kHz with ClampFit (Molecular Devices, LLC).
(§8) Mechanical stimulation: For indentation assays, N2A^Piezo1−/−, MCC13 DRG neurons, and human iPSC374 derived neurons were mechanically stimulated with a heat-polished blunt glass pipette (3-4 μm) driven by a piezo servo controller (E625, Physik Instrumente). The blunt pipette was mounted on a micromanipulator at an ~45° angle and positioned 3-4 μm above from the cells without indenting them. Displacement measurements were obtained with a square-pulse protocol consisting of 1 μm incremental indentation steps, each lasting 200 ms with a 2-ms ramp in 10-s intervals. The threshold of mechano-activated currents for each experiment was defined as the indentation step that evoked the first current deflection from the baseline.

[12] = test system: mouse PIEZO2; assay: as above; details: from IC50 values
Experimental: as §3, §6, §7, §8

[13] = also human Piezo2 in N2A^Piezo1−/− cells (FIG. 14c-d)

T1 sequence (Q9H5I5 whole entry): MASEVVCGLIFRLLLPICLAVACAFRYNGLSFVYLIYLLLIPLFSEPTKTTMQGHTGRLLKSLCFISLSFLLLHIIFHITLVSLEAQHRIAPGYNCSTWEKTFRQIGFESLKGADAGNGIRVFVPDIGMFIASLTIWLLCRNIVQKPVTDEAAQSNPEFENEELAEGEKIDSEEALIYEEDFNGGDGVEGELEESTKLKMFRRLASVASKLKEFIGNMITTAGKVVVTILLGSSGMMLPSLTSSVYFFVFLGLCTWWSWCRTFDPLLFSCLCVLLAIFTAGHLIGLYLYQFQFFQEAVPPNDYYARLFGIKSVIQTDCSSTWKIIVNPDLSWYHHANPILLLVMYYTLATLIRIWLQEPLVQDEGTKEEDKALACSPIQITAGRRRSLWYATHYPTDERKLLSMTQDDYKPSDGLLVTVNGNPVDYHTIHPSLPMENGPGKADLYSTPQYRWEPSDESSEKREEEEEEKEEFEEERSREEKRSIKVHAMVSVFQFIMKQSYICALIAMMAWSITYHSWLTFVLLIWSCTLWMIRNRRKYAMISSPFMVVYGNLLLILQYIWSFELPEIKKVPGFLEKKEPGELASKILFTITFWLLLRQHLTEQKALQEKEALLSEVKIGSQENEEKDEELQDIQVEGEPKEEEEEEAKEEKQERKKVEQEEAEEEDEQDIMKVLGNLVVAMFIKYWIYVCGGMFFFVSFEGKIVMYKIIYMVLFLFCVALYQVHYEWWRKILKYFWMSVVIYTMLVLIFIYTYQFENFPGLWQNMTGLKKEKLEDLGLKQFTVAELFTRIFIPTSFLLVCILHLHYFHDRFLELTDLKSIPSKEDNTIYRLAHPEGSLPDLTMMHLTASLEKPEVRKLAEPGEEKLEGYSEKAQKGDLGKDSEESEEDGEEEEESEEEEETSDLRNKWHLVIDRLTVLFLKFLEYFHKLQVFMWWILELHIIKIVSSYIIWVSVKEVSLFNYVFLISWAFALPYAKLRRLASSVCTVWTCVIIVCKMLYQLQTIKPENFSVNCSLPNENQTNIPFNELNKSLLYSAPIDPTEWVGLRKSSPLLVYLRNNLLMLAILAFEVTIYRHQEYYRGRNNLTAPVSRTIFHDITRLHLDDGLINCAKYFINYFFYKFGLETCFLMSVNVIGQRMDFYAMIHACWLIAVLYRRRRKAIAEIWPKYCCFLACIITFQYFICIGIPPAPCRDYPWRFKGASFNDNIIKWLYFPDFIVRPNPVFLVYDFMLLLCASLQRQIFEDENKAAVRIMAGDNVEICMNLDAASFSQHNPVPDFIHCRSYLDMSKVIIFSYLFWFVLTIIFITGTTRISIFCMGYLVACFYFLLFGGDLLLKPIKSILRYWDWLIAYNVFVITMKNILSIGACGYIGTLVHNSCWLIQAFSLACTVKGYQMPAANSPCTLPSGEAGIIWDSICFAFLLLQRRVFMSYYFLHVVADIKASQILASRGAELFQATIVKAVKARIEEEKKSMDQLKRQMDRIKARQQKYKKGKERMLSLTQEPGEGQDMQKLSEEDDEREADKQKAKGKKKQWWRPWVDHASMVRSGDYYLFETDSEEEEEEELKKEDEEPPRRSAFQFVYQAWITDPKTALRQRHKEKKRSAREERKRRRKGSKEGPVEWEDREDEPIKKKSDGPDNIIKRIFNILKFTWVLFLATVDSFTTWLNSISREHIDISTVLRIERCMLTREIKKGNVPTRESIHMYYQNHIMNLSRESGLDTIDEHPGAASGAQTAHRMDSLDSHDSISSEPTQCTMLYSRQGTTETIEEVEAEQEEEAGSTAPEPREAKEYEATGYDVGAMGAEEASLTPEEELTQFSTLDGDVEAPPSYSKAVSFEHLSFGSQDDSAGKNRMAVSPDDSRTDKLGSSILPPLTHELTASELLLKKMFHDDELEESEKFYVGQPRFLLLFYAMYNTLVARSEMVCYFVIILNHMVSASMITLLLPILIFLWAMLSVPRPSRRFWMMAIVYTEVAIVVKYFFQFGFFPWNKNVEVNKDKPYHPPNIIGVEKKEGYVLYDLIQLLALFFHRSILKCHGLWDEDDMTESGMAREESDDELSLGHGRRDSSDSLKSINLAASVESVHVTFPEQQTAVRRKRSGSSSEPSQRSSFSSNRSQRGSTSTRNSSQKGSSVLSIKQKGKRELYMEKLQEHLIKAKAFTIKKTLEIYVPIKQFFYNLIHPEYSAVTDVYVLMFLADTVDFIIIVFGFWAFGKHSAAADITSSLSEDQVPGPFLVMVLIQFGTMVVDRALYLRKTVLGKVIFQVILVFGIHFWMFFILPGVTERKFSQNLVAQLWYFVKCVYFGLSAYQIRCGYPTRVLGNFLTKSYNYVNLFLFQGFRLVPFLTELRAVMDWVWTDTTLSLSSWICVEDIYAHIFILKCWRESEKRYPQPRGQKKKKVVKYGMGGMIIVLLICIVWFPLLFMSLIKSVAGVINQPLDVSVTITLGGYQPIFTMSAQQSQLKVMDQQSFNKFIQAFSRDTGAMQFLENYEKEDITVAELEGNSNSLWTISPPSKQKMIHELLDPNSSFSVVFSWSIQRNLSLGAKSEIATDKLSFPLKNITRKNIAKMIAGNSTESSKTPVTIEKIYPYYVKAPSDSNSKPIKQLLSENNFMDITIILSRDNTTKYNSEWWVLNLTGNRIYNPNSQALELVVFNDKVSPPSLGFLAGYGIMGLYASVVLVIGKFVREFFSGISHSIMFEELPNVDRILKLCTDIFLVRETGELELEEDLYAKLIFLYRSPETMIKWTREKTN
Sequence of human PIEZO2 (Q9H5I5 whole entry): as above

CCCCCCCCCCCCCCCCC(=O)O [MA, heptadecanoic acid]
action potential firing elicited by mechanical stimuli ([1]; 300 μM): reduces neuronal action potential firing elicited by mechanical stimuli; also recorded: decreases action potentials elicited by mechanical stimuli; also recorded: specifically decrease action potential firing evoked by mechanical stimulation | indentation steps eliciting action potentials ([1]; 300 μM, control 7-12 μm): 12 μm | action potential generation ([1]; 300 μM, indentation steps smaller than 12 μm): completely inhibits action potential generation | mechanical threshold required to fire action potentials ([1]; MA supplementation): increases the mechanical threshold required for DRG neurons to fire action potentials | action potentials evoked by 1 Hz mechanical stimulus trains ([1]; MA-enriched neurons vs control): evoked less action potentials than the control | thermal withdrawal latencies / hyper-responsiveness to heat [2]: did not affect the ability of mice to sense thermal stimuli; also recorded: has no effect on this hyper-responsiveness to heat; also recorded: had no effect on thermal withdrawal latencies | responses to von Frey filaments after topical AITC [3]: does not increase hyper-responsivity to punctate stimuli; also recorded: responded with sensitivities similar to their basal response | effect on PIEZO2 currents ([4]; 50 μM each day for 5 days): significantly decreased PIEZO2 currents | effect on endogenous PIEZO2 currents ([4]; 300 and 600 μM overnight): significantly reduced endogenous PIEZO2 currents | mechanical threshold needed to activate the human channel [4, 13]: increased the mechanical threshold needed to activate the human channel | time constant of inactivation [4, 13]: without altering the time constant of inactivation | effect on activity of Piezo2 V14 [5]: inhibited the activity | effect on activity of Piezo2 V16 [6]: inhibited the activity | mechano-currents of human PIEZO2 [7]: confirmed these results | effect on displacement threshold [8]: increasing the displacement threshold | effect on mechano-evoked currents ([8]; rapidly, intermediate and slowly inactivating currents): inhibit all mechanosensitive currents; also recorded: decreases mechano-activated currents; also recorded: decreased the current magnitude of all DRG neurons mechano-evoked currents | IC50 ([9]; MA 1-300 μM 18 h): 28.3 ± 3.4 µM | IC50 ([9]; latrunculin A-treated cells, MA 1-300 μM 18 h plus latrunculin A): 25.6 µM | action potential firing elicited by mechanical stimuli [10]: reduces neuronal action potential firing elicited by mechanical stimuli | effect on PIEZO2 inactivation ([11]; 50 μM each day for 4 days): without altering PIEZO2 inactivation | effect on displacement threshold ([11]; 50 μM each day for 4 days): increases the displacement threshold | decrease of PIEZO2 currents ([11]; 50 μM each day over four days): 65% | effect on PIEZO2 currents ([11]; 1-600 μM overnight): inhibits heterologously-expressed mouse PIEZO2 currents; also recorded: inhibits PIEZO2 currents in a concentration-dependent manner | IC50 ([11]; MA 1-600 μM overnight (18 h), normalized current densities at maximum displacement, Boltzmann fit): 191 ± 14.7 µM | IC50 ([11]; latrunculin A-treated cells, MA 1-600 μM 18 h plus latrunculin A 1 μM for 1 h): 75.4 ± 13.3 µM | MA concentration required to decrease PIEZO2 currents ([11]; overnight supplementation): higher than 100 μM | effect on time constant of inactivation ([11]; overnight supplementation): without affecting the time constant of inactivation | increase of displacement threshold required to elicit PIEZO2 currents vs control cells ([11]; overnight supplementation): three fold | times more MA needed to inhibit PIEZO2 than PIEZO1 [12]: ~ 7 times

From patent US12714688B2, “Margaric acid decreases PIEZ02-mediated pain” (The United States of America, as represented by The …, priority 2020, dated 2026)
